In patent publication US7594984B2, “Apparatus and method for measuring activity signals of biological samples” (Panasonic Corporation, priority 2002, dated 2009):

What was measured:
[1] = tested on: nerve cells prepared from lymnaea; test: Extracellular recording before and after Carbachol administration; normal distribution of standard deviations (mean value, half-width); type: cell-based; details: 50-μM Carbachol
Description: The normal distribution approximation unit 103 classifies a plurality of standard deviations obtained in the group SD calculation unit 102 into a plurality of classes set at predetermined widths. The classes are plotted on the X axis and the number of standard deviations classified into each class is plotted on the Y axis, to obtain a graph. The graph obtained is approximated to a normal distribution. Methods for approximating the graph to a normal distribution include, for example, various curve fitting analyses, such as exponential decrease, exponential increase, Gaussian, Lorentzian, Sigma, Multipeak and non-linear methods. The mean value/half-width calculation unit 106 calculates the mean value and half-width (the half-peak height width) of the normal distribution obtained.
The apparatus of the present embodiment thus configured was used to measure how the chemical substance Carbachol acts on nerve cells prepared from lymnaea. More specifically, the normal distribution approximation unit 103 produced a frequency distribution of the standard deviations on the basis of signals that were detected by the measurement unit 101 before and after Carbachol was administered to lymnaea nerve cells at 50-μM concentration. […]

[2] = tested on: nerve cells prepared from lymnaea; test: Extracellular recording of nerve cell electrical signals at a series of Carbachol concentrations; mean value of standard deviations; type: cell-based; details: concentrations 0-100, SD sampled every 100 ms from 10-second data, FIG. 10
Description: FIG. 9 is a block diagram schematically illustrating a configuration of the apparatus for measuring the activity signals of biological samples according to Embodiment 3. The apparatus employs the apparatus of Embodiment 1 as a measurement unit (a signal source) 101, and has a function for processing electrical signals detected by the measurement unit 101. As shown in FIG. 9(A), the apparatus is provided with a group SD (standard deviation) calculation unit 102, a mean value calculation unit 105, an activation evaluation unit 120 and a data display unit 110. According to the group SD calculation unit 102, the standard deviation of one group consisting of a predetermined number of samples is calculated on the basis of time-series data detected by the measurement unit 101. […] According to the mean value calculation unit 105, the mean value of the obtained plurality of standard deviations is calculated. […] Therefore, according to the activation calculation unit 120, activation can be calculated based on the input information and can be classified by comparison with pre-stored information. […] According to the apparatus, noise can be removed from digital signals (predetermined time-series data) captured at a fixed sampling rate, and then significant signals showing, for example, the opening and closing of ion channels can be extracted, measured and classified. […]

C[N+](C)(C)CCOC(N)=O [Carbachol]
effect on ion channels of the nerve cells ([1]; lymnaea nerve cells): activates the ion channels
mean value of the normal distribution of standard deviations after administration ([1]; SD every 5 ms from 10-second signals, before administration 0.478, FIG. 12): 0.703
Carbachol concentration at which the mean value of the standard deviations reaches its peak [2]: 10 µM
